Test results reported in PubChem BioAssay (NCI).
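These data come from cells grown in 96-well plates and exposed to compound for 48 hours at five concentrations. At the TGI there is no net growth.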

Each molecule was assayed on SK-MEL-2 melanoma (assay: NCI-60 cell line screen, 48 h).

Row | Compound | TGI [µM]
1 | O=C(Nc1ccn(C2CCC(CO)O2)c(=O)n1)c1ccccc1 (stereo unspecified) | > 100

The molecules below were run on SK-MEL-28 melanoma (assay: NCI-60 cell line screen, 48 h).

Row | Compound | TGI [µM]
2 | CN1CCN(CCCNN)CC1 | > 100
3 | CC(C)(C)[Si](C)(C)OC1(CCc2ccccc2OS(=O)(=O)C(F)(F)F)CCCC=C1COCc1ccccc1 (stereo unspecified) | > 100
4 | C=CCOC1=C(OC(C)=O)C(=O)OC1C1COC(C)(C)O1 (stereo unspecified) | 31.9
5 | Clc1ccc(-c2nc3ccc(Cl)cc3[nH]2)cc1 | > 100
6 | O=C(Nc1ccn(C2CCC(CO)O2)c(=O)n1)c1ccccc1 (stereo unspecified) | > 100

These molecules were tested on SK-MEL-5 melanoma (assay: NCI-60 cell line screen, 48 h).

Row | Compound | TGI [µM]
7 | CN1CCN(CCCNN)CC1 | > 100
8 | CC(C)(C)[Si](C)(C)OC1(CCc2ccccc2OS(=O)(=O)C(F)(F)F)CCCC=C1COCc1ccccc1 (stereo unspecified) | > 100
9 | C=CCOC1=C(OC(C)=O)C(=O)OC1C1COC(C)(C)O1 (stereo unspecified) | > 100
10 | Clc1ccc(-c2nc3ccc(Cl)cc3[nH]2)cc1 | > 100
11 | O=C(Nc1ccn(C2CCC(CO)O2)c(=O)n1)c1ccccc1 (stereo unspecified) | > 100

These molecules were tested on SK-OV-3 ovarian (assay: NCI-60 cell line screen, 48 h).

Row | Compound | TGI [µM]
12 | CN1CCN(CCCNN)CC1 | > 100
13 | CC(C)(C)[Si](C)(C)OC1(CCc2ccccc2OS(=O)(=O)C(F)(F)F)CCCC=C1COCc1ccccc1 (stereo unspecified) | > 100
14 | C=CCOC1=C(OC(C)=O)C(=O)OC1C1COC(C)(C)O1 (stereo unspecified) | > 100
15 | Clc1ccc(-c2nc3ccc(Cl)cc3[nH]2)cc1 | > 100
16 | O=C(Nc1ccn(C2CCC(CO)O2)c(=O)n1)c1ccccc1 (stereo unspecified) | > 100

Each molecule was assayed on SN12C renal (assay: NCI-60 cell line screen, 48 h).

Row | Compound | TGI [µM]
17 | CN1CCN(CCCNN)CC1 | > 100
18 | CC(C)(C)[Si](C)(C)OC1(CCc2ccccc2OS(=O)(=O)C(F)(F)F)CCCC=C1COCc1ccccc1 (stereo unspecified) | > 100
19 | C=CCOC1=C(OC(C)=O)C(=O)OC1C1COC(C)(C)O1 (stereo unspecified) | > 68.7
20 | Clc1ccc(-c2nc3ccc(Cl)cc3[nH]2)cc1 | 86.6
21 | O=C(Nc1ccn(C2CCC(CO)O2)c(=O)n1)c1ccccc1 (stereo unspecified) | > 100

What follows are molecules tested on SNB-19 CNS (assay: NCI-60 cell line screen, 48 h).

Row | Compound | TGI [µM]
22 | CN1CCN(CCCNN)CC1 | > 100
23 | CC(C)(C)[Si](C)(C)OC1(CCc2ccccc2OS(=O)(=O)C(F)(F)F)CCCC=C1COCc1ccccc1 (stereo unspecified) | > 100
24 | C=CCOC1=C(OC(C)=O)C(=O)OC1C1COC(C)(C)O1 (stereo unspecified) | > 100
25 | Clc1ccc(-c2nc3ccc(Cl)cc3[nH]2)cc1 | > 100
26 | O=C(Nc1ccn(C2CCC(CO)O2)c(=O)n1)c1ccccc1 (stereo unspecified) | > 100

Each molecule was assayed on SNB-75 CNS (assay: NCI-60 cell line screen, 48 h).

Row | Compound | TGI [µM]
27 | CN1CCN(CCCNN)CC1 | > 100
28 | CC(C)(C)[Si](C)(C)OC1(CCc2ccccc2OS(=O)(=O)C(F)(F)F)CCCC=C1COCc1ccccc1 (stereo unspecified) | > 100
29 | C=CCOC1=C(OC(C)=O)C(=O)OC1C1COC(C)(C)O1 (stereo unspecified) | > 71.3
30 | Clc1ccc(-c2nc3ccc(Cl)cc3[nH]2)cc1 | > 100
31 | O=C(Nc1ccn(C2CCC(CO)O2)c(=O)n1)c1ccccc1 (stereo unspecified) | > 100

The molecules below were run on SR leukemia (assay: NCI-60 cell line screen, 48 h).

Row | Compound | TGI [µM]
32 | CN1CCN(CCCNN)CC1 | > 100
33 | CC(C)(C)[Si](C)(C)OC1(CCc2ccccc2OS(=O)(=O)C(F)(F)F)CCCC=C1COCc1ccccc1 (stereo unspecified) | > 100
34 | C=CCOC1=C(OC(C)=O)C(=O)OC1C1COC(C)(C)O1 (stereo unspecified) | 9.02
35 | Clc1ccc(-c2nc3ccc(Cl)cc3[nH]2)cc1 | > 100
36 | O=C(Nc1ccn(C2CCC(CO)O2)c(=O)n1)c1ccccc1 (stereo unspecified) | > 100

These molecules were tested on SW-620 colon (assay: NCI-60 cell line screen, 48 h).

Row | Compound | TGI [µM]
37 | CN1CCN(CCCNN)CC1 | > 100
38 | CC(C)(C)[Si](C)(C)OC1(CCc2ccccc2OS(=O)(=O)C(F)(F)F)CCCC=C1COCc1ccccc1 (stereo unspecified) | > 100
39 | C=CCOC1=C(OC(C)=O)C(=O)OC1C1COC(C)(C)O1 (stereo unspecified) | > 59.7
40 | Clc1ccc(-c2nc3ccc(Cl)cc3[nH]2)cc1 | > 100
41 | O=C(Nc1ccn(C2CCC(CO)O2)c(=O)n1)c1ccccc1 (stereo unspecified) | > 100

Each molecule was assayed on T-47D breast (assay: NCI-60 cell line screen, 48 h).

Row | Compound | TGI [µM]
42 | CN1CCN(CCCNN)CC1 | > 100
43 | CC(C)(C)[Si](C)(C)OC1(CCc2ccccc2OS(=O)(=O)C(F)(F)F)CCCC=C1COCc1ccccc1 (stereo unspecified) | > 100
44 | C=CCOC1=C(OC(C)=O)C(=O)OC1C1COC(C)(C)O1 (stereo unspecified) | > 63.7
45 | Clc1ccc(-c2nc3ccc(Cl)cc3[nH]2)cc1 | > 100
46 | O=C(Nc1ccn(C2CCC(CO)O2)c(=O)n1)c1ccccc1 (stereo unspecified) | > 100

These molecules were tested on TK-10 renal (assay: NCI-60 cell line screen, 48 h).

Row | Compound | TGI [µM]
47 | CN1CCN(CCCNN)CC1 | > 100
48 | CC(C)(C)[Si](C)(C)OC1(CCc2ccccc2OS(=O)(=O)C(F)(F)F)CCCC=C1COCc1ccccc1 (stereo unspecified) | > 100
49 | C=CCOC1=C(OC(C)=O)C(=O)OC1C1COC(C)(C)O1 (stereo unspecified) | > 100
50 | Clc1ccc(-c2nc3ccc(Cl)cc3[nH]2)cc1 | > 100
51 | O=C(Nc1ccn(C2CCC(CO)O2)c(=O)n1)c1ccccc1 (stereo unspecified) | > 100

The molecules below were run on U251 CNS (assay: NCI-60 cell line screen, 48 h).

Row | Compound | TGI [µM]
52 | CN1CCN(CCCNN)CC1 | > 100
53 | CC(C)(C)[Si](C)(C)OC1(CCc2ccccc2OS(=O)(=O)C(F)(F)F)CCCC=C1COCc1ccccc1 (stereo unspecified) | > 100
54 | C=CCOC1=C(OC(C)=O)C(=O)OC1C1COC(C)(C)O1 (stereo unspecified) | > 100
55 | Clc1ccc(-c2nc3ccc(Cl)cc3[nH]2)cc1 | > 100
56 | O=C(Nc1ccn(C2CCC(CO)O2)c(=O)n1)c1ccccc1 (stereo unspecified) | > 100

The molecules below were run on UACC-257 melanoma (assay: NCI-60 cell line screen, 48 h).

Row | Compound | TGI [µM]
57 | CN1CCN(CCCNN)CC1 | > 100
58 | CC(C)(C)[Si](C)(C)OC1(CCc2ccccc2OS(=O)(=O)C(F)(F)F)CCCC=C1COCc1ccccc1 (stereo unspecified) | > 100
59 | C=CCOC1=C(OC(C)=O)C(=O)OC1C1COC(C)(C)O1 (stereo unspecified) | > 100
60 | Clc1ccc(-c2nc3ccc(Cl)cc3[nH]2)cc1 | > 100
61 | O=C(Nc1ccn(C2CCC(CO)O2)c(=O)n1)c1ccccc1 (stereo unspecified) | > 100

The molecules below were run on UACC-62 melanoma (assay: NCI-60 cell line screen, 48 h).

Row | Compound | TGI [µM]
62 | CN1CCN(CCCNN)CC1 | > 100
63 | CC(C)(C)[Si](C)(C)OC1(CCc2ccccc2OS(=O)(=O)C(F)(F)F)CCCC=C1COCc1ccccc1 (stereo unspecified) | > 53
64 | C=CCOC1=C(OC(C)=O)C(=O)OC1C1COC(C)(C)O1 (stereo unspecified) | > 100
65 | Clc1ccc(-c2nc3ccc(Cl)cc3[nH]2)cc1 | > 100
66 | O=C(Nc1ccn(C2CCC(CO)O2)c(=O)n1)c1ccccc1 (stereo unspecified) | > 100

Each molecule was assayed on UO-31 renal (assay: NCI-60 cell line screen, 48 h).

Row | Compound | TGI [µM]
67 | CN1CCN(CCCNN)CC1 | > 100
68 | CC(C)(C)[Si](C)(C)OC1(CCc2ccccc2OS(=O)(=O)C(F)(F)F)CCCC=C1COCc1ccccc1 (stereo unspecified) | > 100
69 | C=CCOC1=C(OC(C)=O)C(=O)OC1C1COC(C)(C)O1 (stereo unspecified) | > 79.4
70 | Clc1ccc(-c2nc3ccc(Cl)cc3[nH]2)cc1 | 79.3
71 | O=C(Nc1ccn(C2CCC(CO)O2)c(=O)n1)c1ccccc1 (stereo unspecified) | > 100
